From patent US10285983B2, “3-(1H-pyrrolo[2,3-B]pyridin-2-yl)-1H-pyrazolo[3,4-B] pyridines and therapeutic uses thereof” (Samumed, LLC, priority 2015, dated 2019)

Legend:
[1] = system: primary human fibroblasts derived from IPF patients (LL29 cells); test: Inhibition of fibrotic process, αSMA staining in TGF-β1 treated LL29 fibroblasts; type: cell-based; conditions: Fibroblast, 96 h, TGF-β1 20 ng/mL, 4 days; for EC50: % αSMA positive cells
Summary of the method: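 IPF-patient LL29 lung fibroblasts in 1% FBS medium received compound (11-point, 1:2 dilution, 0.1% DMSO) plus TGF-β1 20 ng/mL, 4 days at 37 °C. Percent αSMA-positive cells among SYTOX-negative cells quantified by immunofluorescence imaging, normalized to TGF-β1/DMSO wells. EC50 by non-linear regression on triplicates; above 10 μM, % inhibition at 10 μM given.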

[2] = system: primary human mesenchymal stem cells (hMSCs); test: Chondrogenesis induction in hMSCs (nodule count, Rhodamine B/Nile Red); type: cell-based; conditions: 144 h, 6 days; for EC50: concentration required to induce 50% levels of chondrogenesis vs TGF-β3, read-out: Conc (nM) of 50% TGF-β3 activity; for Emax: relative to TGF-β3 (10 ng/mL) positive control, read-out: Max. Activity as % TGF-β3 activity
Protocol: Representative compounds were screened using primary human mesenchymal stem cells (hMSCs) to determine their ability to induce chondrogenesis (process by which cartilage is developed).
Primary human mesenchymal stem cells (hMSCs) were purchased from Lonza (Walkersville, Md.) and expanded in Mesenchymal Stem Cell Growth Media (Lonza). Cells between passage 3 and 6 were used for the experiments.
Each compound was dissolved in DMSO as a 10 mM stock and used to prepare compound source plates. Serial dilution (1:3, 6-point dose-response curves from 2700 nM to 10 nM) and compound transfer was performed using the ECHO 550 (Labcyte, Sunnyvale, Calif.) into 96-well clear bottom assay plates (Greiner Bio-One) with appropriate DMSO backfill for a final DMSO concentration of 0.03%. hMSCs were plated at 20,000 cells/well in 250 μL/well Incomplete Chondrogenic Induction Medium (Lonza; DMEM, dexamethasone, ascorbate, insulin-transferrin-selenium [ITS supplement], gentamycin-amphotericin [GA-1000], sodium pyruvate, proline and L-glutamine). TGF-β3 (10 ng/mL) was used as a positive control for differentiation while negative control wells were treated with 75 nL DMSO for normalization and calculating EC50 values. Cells were incubated at 37° C. and 5% CO2 for 6 days. To image chondrogenic nodules, the cells were fixed using 4% formaldehyde (Electron Microscopy Sciences), and stained with 2 μg/mL Rhodamine B (Sigma-Aldrich) and 20 μM Nile Red (Sigma-Aldrich) [Johnson K., et. al, A Stem Cell-Based Approach to Cartilage Repair, Science, (2012), 336(6082), 717-721]. The nodules imaged (4 images per well at 4× magnification) by excitation at 531 nm and emission at 625 nm and quantified using the CellInsight CX5 (Thermo Scientific). Number of nodules in each well was normalized to the average of 3 DMSO treated wells on the same plate using Excel (Microsoft Inc.). The normalized averages (fold change over DMSO) of 3 replicate wells for each compound concentration were calculated. Due to solubility limitations of some of the compounds, curve fitting was incomplete leading to inaccurate EC50 determinations.
Using TGF-β3 as a positive control, the concentration of representative compounds required to induce 50% levels of chondrogenesis is reported. In addition, the maximum activity of each compound and the respective dose that each compound reached maximum chondrogenesis activity is reported.

EC50 [2] [nM]	Structure (SMILES)	EC50 [1] [nM]	Emax [2] [%]	inhibition at 10 µM ([1]; given for EC50 >10 μM, read-out: percent inhibition at 10 μM) [%]
	CN(C)Cc1cncc(-c2cnc3[nH]nc(-c4cc5c(N6CCCCC6)ccnc5[nH]4)c3c2)c1 [Compound 181, N,N-Dimethyl-1-(5-(3-(4-(piperidin-1-yl)-1H-pyrrolo[2,3-b]pyridin-2-yl)-1H-pyrazolo[3,4-b]pyridin-5-yl)pyridin-3-yl)methanamine]	7	46	
	c1cncc(-c2cnc3[nH]nc(-c4cc5cccnc5[nH]4)c3c2)c1 [Compound 256, 5-(Pyridin-3-yl)-3-(1H-pyrrolo[2,3-b]pyridin-2-yl)-1H-pyrazolo[3,4-b]pyridine]	529	11	
	O=C(Nc1cncc(-c2cnc3[nH]nc(-c4cc5cccnc5[nH]4)c3c2)c1)c1ccccc1 [Compound 263, N-(5-(3-(1H-Pyrrolo[2,3-b]pyridin-2-yl)-1H-pyrazolo[3,4-b]pyridin-5-yl)pyridin-3-yl)benzamide]	363	22	
	CC(C)(C)CC(=O)Nc1cncc(-c2cnc3[nH]nc(-c4cc5cccnc5[nH]4)c3c2)c1 [Compound 268, N-(5-(3-(1H-Pyrrolo[2,3-b]pyridin-2-yl)-1H-pyrazolo[3,4-b]pyridin-5-yl)pyridin-3-yl)-3,3-dimethylbutanamide]	420	23	
900	CCCCC(=O)Nc1cncc(-c2cnc3[nH]nc(-c4cc5cccnc5[nH]4)c3c2)c1 [Compound 271, N-(5-(3-(1H-Pyrrolo[2,3-b]pyridin-2-yl)-1H-pyrazolo[3,4-b]pyridin-5-yl)pyridin-3-yl)pentanamide]	5350	260	
	O=C(Nc1cncc(-c2cnc3[nH]nc(-c4cc5cccnc5[nH]4)c3c2)c1)C1CCCCC1 [Compound 275, N-(5-(3-(1H-Pyrrolo[2,3-b]pyridin-2-yl)-1H-pyrazolo[3,4-b]pyridin-5-yl)pyridin-3-yl)cyclohexanecarboxamide]	1560	28	
	O=C(CC1CCNCC1)Nc1cncc(-c2cnc3[nH]nc(-c4cc5c(-c6ccncc6)ccnc5[nH]4)c3c2)c1 [Compound 577]	1410	27	
	CN1CCN(c2ccnc3[nH]c(-c4n[nH]c5ncc(-c6cn[nH]c6)cc45)cc23)CC1 [Compound 635, 3-(4-(4-Methylpiperazin-1-yl)-1H-pyrrolo[2,3-b]pyridin-2-yl)-5-(1H-pyrazol-4-yl)-1H-pyrazolo[3,4-b]pyridine]	> 10000	20	26
300	Cn1cc(-c2cnc3[nH]nc(-c4cc5cccnc5[nH]4)c3c2)cn1 [Compound 652, 5-(1-Methyl-1H-pyrazol-4-yl)-3-(1H-pyrrolo[2,3-b]pyridin-2-yl)-1H-pyrazolo[3,4-b]pyridine]	230	52	

Structure (SMILES)	EC50 [2] [nM]	EC50 [1] [nM]	Emax [2] [%]	inhibition at 10 µM ([1]; given for EC50 >10 μM, read-out: percent inhibition at 10 μM) [%]
CCC(=O)Nc1cncc(-c2cnc3[nH]nc(-c4cc5c(N6CCCCC6)ccnc5[nH]4)c3c2)c1 [Compound 169, N-(5-(3-(4-(Piperidin-1-yl)-1H-pyrrolo[2,3-b]pyridin-2-yl)-1H-pyrazolo[3,4-b]pyridin-5-yl)pyridin-3-yl)propionamide]	900	2980	183	
